Legend:
Type in all cases: physicochemical
[1] = Assessment of capsules after manufacture: amount of tasquinimod and of decomposition products; details: 0 months (after manufacturing)
Excerpt: (§1) In some embodiments, the method disclosed herein comprises storing (keeping) a sample of the pharmaceutical product for a period of time, preferably under selected conditions of temperature and humidity. The amount (or concentration) of tasquinimod and of at least one of compounds I, II, III and IV in the sample may preferably be determined at the beginning or before the storage period and at the end of the storage period. The selected storage conditions may include a temperature in the range of, for example, 20° C. to 40° C., and a relative humidity in the surrounding atmosphere in the range of, for example, 30% to 75%; e.g. 25° C. and 60% RH, or 30° C. and 65% RH, or 35° C. and 70% RH, or 40° C. and 75% RH. The storage period may extend over a time period in the range of, for example, several weeks to several years. For example, the stability testing period (“storage period”) may be 2 weeks, 3 weeks, 1 month, 2 months, 3 months, 4 months, 5 months, 6 months, 9 months, 1 year, 18 months, 2 years, 3 years, 4 years or even 5 years or longer. A shorter storage period may be selected by use of higher storage temperature and/or higher relative humidity (RH). The total amount of a tasquinimod decomposition product in the sample at the end of the storage period may be determined by, for example, HPLC.
The obtained batch of capsules was assessed by determining the amount of tasquinimod and the amount of compound III in a sample of the capsules. The selected criterion for approving the batch was that the capsules of the sample contain not more than 1.0% w/w of compound III relative to the amount of tasquinimod. […] Therefore, according to the selected criterion for approval, the batch of capsules was determined to be suitable for distribution.
The obtained batch of capsules was assessed by determining the amount of tasquinimod and the amount of compounds I, II, III and IV in a sample of the capsules. The selected criterion for approving the batch was that the capsules of the sample contain not more than in total 5% w/w of compounds I-IV relative to the amount of tasquinimod. […] Therefore, according to the selected criterion for approval, the batch of capsules was determined to be suitable for distribution.
(§2) The obtained batch of capsules was subjected to multiple assessments, viz. a first assessment comprising determining the amount of tasquinimod and the amount of compounds I, II, III and IV in a sample of the capsules directly after manufacturing, whereby the selected criterion for approving the batch for distribution was that the capsules of the sample, in a water impermeable blister pack, contain not more than in total 5% w/w of compounds I-IV relative to the amount of tasquinimod, followed by eight further, independent assessments, by determining the amount of tasquinimod and the amount of each one of compounds I, II, III and IV in a sample of the capsules at the end of a period of stability testing (by keeping the capsules, in a water impermeable blister pack, at 25° C./60% RH) of 3, 6, 9, 12, 18, 24, 36 and 48 months, respectively, whereby each time the criterion for approving the batch was that the capsules of the sample, at the end of each period of stability testing, contain a total amount of compounds I-IV of not more than 5.0% w/w, relative to the amount of tasquinimod in the capsules.

[2] = Stability testing of capsules at 25° C./60% RH in water impermeable blister pack
Excerpt: as §1
The batch of capsules manufactured in Example 19 was assessed by determining the amount of tasquinimod and the amount of each one of compounds I, II, III and IV in a sample of the capsules at the end of a 3-month stability testing, whereby the criterion for approving the batch was that the capsules of the sample, at the end of the 3-month stability testing, contain a total amount of compounds I-IV of not more than 5.0% w/w, relative to the amount of tasquinimod in the capsules. The stability testing consisted of keeping the capsules, in a water impermeable blister pack, at 25° C./60% RH. At the end of the stability testing, the capsules contained 0.06% w/w of compound I, less than 0.05% w/w of compound II, 0.10% of compound III and less than 0.05% w/w of compound IV, relative to the amount of tasquinimod (determined to be 0.246 mg/capsule), viz. in total less than 0.26% w/w of compounds I-IV relative to the amount of tasquinimod. Therefore, according to the selected criterion for approval, the batch of capsules was determined to be suitable for distribution.
as §2

[3] = Drug product stability studies (general observations)
Excerpt: In a drug product, compound I is formed with compound II from hydrolysis of tasquinimod. […] Compound II is further decarboxylated to form compound III.
Compound III is the decarboxylated species formed from the degradation of compound II.
The mechanism for formation of compound IV in a drug product is unknown.

[4] = 0.25 mg capsules of Example 19, 18 months
[5] = 0.25 mg capsules of Example 19, 24 months
[6] = 0.25 mg capsules of Example 19, 36 months
[7] = 0.25 mg capsules of Example 19, 48 months
[8] = 0.5 mg capsules of Example 28, 3 months
[9] = 0.5 mg capsules of Example 28, 6 months
[10] = 0.5 mg capsules of Example 28, 9 months
[11] = 0.5 mg capsules of Example 28, 12 months
[12] = 0.5 mg capsules of Example 28, 18 months
[13] = 0.5 mg capsules of Example 28, 24 months
[14] = 0.5 mg capsules of Example 28, 36 months
[15] = 0.5 mg capsules of Example 28, 48 months
[16] = 1.0 mg capsules of Example 29, 3 months
[17] = 1.0 mg capsules of Example 29, 6 months
[18] = 1.0 mg capsules of Example 29, 9 months
[19] = 1.0 mg capsules of Example 29, 12 months
[20] = 1.0 mg capsules of Example 29, 18 months
[21] = 1.0 mg capsules of Example 29, 24 months
[22] = 1.0 mg capsules of Example 29, 36 months
[23] = 1.0 mg capsules of Example 29, 48 months

SMILES | Decomposition products (% w/w), relative to the amount of tasquinimod in capsule ([1]; 0.5 mg capsules of Example 28) [% w/w] | Decomposition products (% w/w), relative to the amount of tasquinimod in capsule ([1]; 1.0 mg capsules of Example 29) [% w/w] | amount of decomposition product (each of compounds I-IV) in capsules, relative to the amount of tasquinimod [2, 4] [% w/w] | amount of decomposition product (each of compounds I-IV) in capsules, relative to the amount of tasquinimod [2, 5] [% w/w] | amount of decomposition product (each of compounds I-IV) in capsules, relative to the amount of tasquinimod [2, 6] [% w/w] | amount of decomposition product (each of compounds I-IV) in capsules, relative to the amount of tasquinimod [2, 7] [% w/w] | Decomposition products (% w/w), relative to the amount of tasquinimod in capsule [2, 8] [% w/w] | Decomposition products (% w/w), relative to the amount of tasquinimod in capsule [2, 9] [% w/w] | Decomposition products (% w/w), relative to the amount of tasquinimod in capsule [2, 10] [% w/w] | Decomposition products (% w/w), relative to the amount of tasquinimod in capsule [2, 11] [% w/w] | Decomposition products (% w/w), relative to the amount of tasquinimod in capsule [2, 12] [% w/w] | Decomposition products (% w/w), relative to the amount of tasquinimod in capsule [2, 13] [% w/w] | Decomposition products (% w/w), relative to the amount of tasquinimod in capsule [2, 14] [% w/w] | Decomposition products (% w/w), relative to the amount of tasquinimod in capsule [2, 15] [% w/w] | Decomposition products (% w/w), relative to the amount of tasquinimod in capsule [2, 16] [% w/w] | Decomposition products (% w/w), relative to the amount of tasquinimod in capsule [2, 17] [% w/w] | Decomposition products (% w/w), relative to the amount of tasquinimod in capsule [2, 18] [% w/w] | Decomposition products (% w/w), relative to the amount of tasquinimod in capsule [2, 19] [% w/w] | Decomposition products (% w/w), relative to the amount of tasquinimod in capsule [2, 20] [% w/w] | Decomposition products (% w/w), relative to the amount of tasquinimod in capsule [2, 21] [% w/w] | also measured
COc1cccc2c1c(O)c(Cc1c(O)c3c(OC)cccc3n(C)c1=O)c(=O)n2C [Compound IV, 3,3′-methylenebis(4-hydroxy-5-methoxy-1-methylquinolin-2(1H)-one)] | <0.05 | <0.05 | 0.07 | 0.10 | 0.15 | 0.19 | <0.05 | <0.05 | <0.05 | <0.05 | <0.05 | 0.06 | 0.09 | 0.11 | <0.05 | <0.05 | <0.05 | <0.05 | <0.05 | <0.05 | Decomposition products (% w/w), relative to the amount of tasquinimod in capsule [2, 22]: <0.05 % w/w; Decomposition products (% w/w), relative to the amount of tasquinimod in capsule [2, 23]: <0.05 % w/w; change of the amount of the compound in tasquinimod drug product on storage [3]: increase under accelerated conditions
CNc1ccc(C(F)(F)F)cc1 [Compound I, N-methyl-4-(trifluoromethyl)aniline] | <0.05 | <0.05 | 0.10 | 0.13 | 0.16 | 0.16 | <0.05 | 0.05 | 0.06 | 0.07 | 0.06 | 0.07 | 0.07 | 0.08 | <0.05 | <0.05 | <0.05 | <0.05 | <0.05 | <0.05 | amount of decomposition product (each of compounds I-IV) in capsules, relative to the amount of tasquinimod ([2]; 0.25 mg capsules of Example 19, 3 months): 0.06 % w/w; amount of decomposition product (each of compounds I-IV) in capsules, relative to the amount of tasquinimod ([2]; 0.25 mg capsules of Example 19, 6 months): 0.08 % w/w; amount of decomposition product (each of compounds I-IV) in capsules, relative to the amount of tasquinimod ([2]; 0.25 mg capsules of Example 19, 9 months): 0.12 % w/w; amount of decomposition product (each of compounds I-IV) in capsules, relative to the amount of tasquinimod ([2]; 0.25 mg capsules of Example 19, 12 months): 0.11 % w/w; Decomposition products (% w/w), relative to the amount of tasquinimod in capsule [2, 22]: <0.05 % w/w; Decomposition products (% w/w), relative to the amount of tasquinimod in capsule [2, 23]: <0.05 % w/w; change of the amount of the compound in tasquinimod drug product on storage [3]: increase under any storage conditions
COc1cccc2c1c(O)c(C(=O)O)c(=O)n2C [Compound II, 4-hydroxy-5-methoxy-1-methyl-2-oxo-1,2-dihydroquinoline-3-carboxylic acid] | <0.05 | <0.05 | 0.05 | 0.05 | 0.06 | 0.06 | <0.05 | <0.05 | <0.05 | <0.05 | <0.05 | <0.05 | <0.05 | <0.05 | <0.05 | <0.05 | 0.06 | 0.06 | 0.06 | 0.06 | Decomposition products (% w/w), relative to the amount of tasquinimod in capsule [2, 22]: 0.07 % w/w; Decomposition products (% w/w), relative to the amount of tasquinimod in capsule [2, 23]: 0.08 % w/w; change of the amount of the compound in tasquinimod drug product on storage [3]: slight increase

Reference: patent US20240277693A1, “A PHARMACEUTICAL PRODUCT CONTAINING TASQUINIMOD AND A METHOD FOR ASSESSING THE PURITY OF SAID PRODUCT” (ACTIVE BIOTECH AB, priority 2021, published 2024)
